Results on 14 molecules are retold here after patent US11492375B2, “Cyclic peptide immunomodulators” (Bristol-Myers Squibb Company, priority 2017, dated 2022).

Chain of PD-1-Ig binding to PD-L1-TVMV-His (PD-L1-His) (Q9NZQ7 other isoform, or with tags, fused parts or gaps): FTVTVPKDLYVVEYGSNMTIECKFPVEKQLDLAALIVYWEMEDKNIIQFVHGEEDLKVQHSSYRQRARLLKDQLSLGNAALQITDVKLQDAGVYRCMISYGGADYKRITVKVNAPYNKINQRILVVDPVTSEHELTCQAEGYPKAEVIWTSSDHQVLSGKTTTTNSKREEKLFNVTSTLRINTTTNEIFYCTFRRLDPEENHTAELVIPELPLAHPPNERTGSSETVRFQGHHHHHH

One experiment deals with PD-1-Ig binding to PD-L1-TVMV-His (PD-L1-His) (Homo sapiens (Human), UniProt Q9NZQ7). As to the kind of experiment: PD-1/PD-L1 Homogenous Time-Resolved Fluorescence (HTRF) binding assay. The conditions noted are these: PD-1-Ig/PD-L1-His binding; numeric value; read-out: HTRF IC50 (μM) or Range. The source says:
The ability of the macrocyclic peptides of the present disclosure to bind to PD-L1 was investigated using a PD-1/PD-L1 Homogenous Time-Resolved Fluorescence (HTRF) binding assay.
Homogenous Time-Resolved Fluorescence (HTRF) Assays of Binding of Soluble PD-1 to Soluble PD-L1. Soluble PD-1 and soluble PD-L1 refers to proteins with carboxyl-end truncations that remove the transmembrane-spanning regions and are fused to heterologous sequences, specifically the Fc portion of the human immunoglobuling G sequence (Ig) or the hexahistidine epitope tag (His). All binding studies were performed in an HTRF assay buffer consisting of dPBS supplemented with 0.1% (w/v) bovine serum albumin and 0.05% (v/v) Tween-20. For the PD-1-Ig/PD-L1-His binding assay, inhibitors were pre-incubated with PD-L1-His (10 nM final) for 15m in 4 μl of assay buffer, followed by addition of PD-1-Ig (20 nM final) in 1 μl of assay buffer and further incubation for 15 m. PD-L1 fusion proteins from either human, cynomologous macaques, mouse, or other species were used. HTRF detection was achieved using europium crypate-labeled anti-Ig monoclonal antibody (1 nM final) and allophycocyanin (APC) labeled anti-His monoclonal antibody (20 nM final). Antibodies were diluted in HTRF detection buffer and 5 μl was dispensed on top of binding reaction. The reaction was allowed to equilibrate for 30 minutes and signal (665 nm/620 nm ratio) was obtained using an EnVision fluorometer. Additional binding assays were established between PD-1-Ig/PD-L2-His (20 and 5 nM, respectively), CD8O-His/PD-L1-Ig (100 and 10 nM, respectively) and CD80-His/CTLA4-Ig (10 and 5 nM, respectively). Binding/competition studies between biotinylated Compound No. 71 and human PD-L1-His were performed as follows. Macrocyclic peptide inhibitors were pre-incubated with PD-L1-His (10 nM final) for 60 minutes in 4 μl of assay buffer followed by addition of biotinylated Compound No. 71 (0.5 nM final) in 1 μl of assay buffer. Binding was allowed to equilibrate for 30 minutes followed by addition of europium crypated labeled Streptavidin (2.5 pM final) and APC-labeled anti-His (20 nM final) in 5 μl of HTRF buffer. The reaction was allowed to equilibrate for 30 m and signal (665 nm/620 nm ratio) was obtained using an EnVision fluorometer.
Recombinant Proteins. Carboxyl-truncated human PD-1 (amino acids 25-167) with a C-terminal human Ig epitope tag [hPD-1 (25-167)-35-IG] and human PD-L1 (amino acids 18-239) with a C-terminal His epitope tag [hPD-L1(19-239)-tobacco vein mottling virus protease cleavage site (TVMV)-His] were expressed in HEK293T cells and purified sequentially by recombinant Protein A affinity chromatography and size exclusion chromatography. Human PD-L2-His (Sino Biologicals), CD80-His (Sino Biologicals), CTLA4-Ig (RnD Systems) were all obtained through commercial sources.
(In general: Time-resolved FRET reads energy transfer from a long-lived donor to a nearby acceptor.)
One may read the IC50 as the concentration that inhibits the measured activity by half. As for `C[C@@H]1NC(=O)[C@@H]2CCCC/C=C\CCCC[C@@H](C(=O)N2C)N(C)C(=O)[C@H](Cc2c[nH]c3ccccc23)NC(=O)[C@H](CO)NC(=O)[C@H](Cc2c[nH]c3ccccc23)NC(=O)[C@@H]2C[C@@H](O)CN2C(=O)[C@H](CCC(N)=O)NC(=O)[C@H](Cc2cnc[nH]2)NC(=O)[C@@H]2CCCN2C(=O)[C@H](CC(=O)O)NC(=O)[C@@H]2CNCCN2C(=O)[C@H](Cc2ccc(O)cc2)NC(=O)CSC[C@@H](C(=O)NCC(N)=O)NC1=O` [Example 1115], the IC50 is 0.011 µM.

Staying with this experiment, now noted: PD-1-Ig/PD-L1-His binding; value given as range class; read-out: HTRF IC50 (μM) or Range.
Turning to `C[C@H]1C(=O)N[C@@H](CC(=O)O)C(=O)N2CCC[C@H]2C(=O)N[C@@H](CN)C(=O)N[C@@H](CCC(=O)O)C(=O)N2C[C@H](O)C[C@H]2C(=O)N[C@@H](Cc2c[nH]c3ccccc23)C(=O)N[C@@H](CO)C(=O)N[C@@H](Cc2csc3ccccc23)C(=O)N(C)[C@H]2CCCC/C=C\CCCC[C@@H](C(=O)N[C@@H](CN)C(=O)N[C@H](C(=O)NCC(N)=O)CSCC(=O)N[C@@H](Cc3ccc(O)cc3)C(=O)N1C)N(C)C2=O` [Example 1118], the half-inhibitory concentration (IC50) was 0.002 to 0.0099 µM.

Turning to `C[C@@H]1NC(=O)[C@@H]2CCCC/C=C\CCCC[C@@H](C(=O)N2C)N(C)C(=O)[C@H](Cc2c[nH]c3ccccc23)NC(=O)[C@H](CO)NC(=O)[C@H](Cc2c[nH]c3ccccc23)NC(=O)[C@@H]2C[C@@H](O)CN2C(=O)[C@H](CCC(N)=O)NC(=O)[C@H](CN)NC(=O)[C@@H]2CCCN2C(=O)[C@H](CC(=O)O)NC(=O)[C@H](C)N(C)C(=O)[C@H](Cc2ccc(O)cc2)NC(=O)CSC[C@@H](C(=O)NCC(N)=O)NC1=O` [Example 1112], the IC50 was in the range of 0.002 to 0.0099 µM. Turning to `CC(C)C[C@@H]1NC(=O)[C@H](CN)NC(=O)[C@@H]2CCCN2C(=O)[C@H](CC(N)=O)NC(=O)[C@H](C)N(C)C(=O)[C@H](Cc2ccc(O)cc2)NC(=O)CSC[C@H](C(=O)NCC(N)=O)NC(=O)[C@@H](CCCNC(=N)N)NC(=O)[C@@H]2CCCC/C=C\CCCC[C@@H](C(=O)N2C)N(C)C(=O)[C@H](Cc2c[nH]c3ccccc23)NC(=O)[C@H](CO)NC(=O)[C@@H](Cc2c[nH]c3ccccc23)NC(=O)[C@@H]2C[C@@H](O)CN2C1=O` [Example 1109], the IC50 is 0.002 to 0.0099 µM. For `CC(C)C[C@@H]1NC(=O)[C@H](CN)NC(=O)[C@@H]2CCCN2C(=O)[C@H](CC(N)=O)NC(=O)[C@H](C)N(C)C(=O)[C@H](Cc2ccc(O)cc2)NC(=O)CSC[C@@H](C(N)=O)NC(=O)[C@H](CCCNC(=N)N)NC(=O)[C@@H]2CCCC/C=C\CCCC[C@@H](C(=O)N2C)N(C)C(=O)[C@H](Cc2c[nH]c3ccccc23)NC(=O)[C@H](CO)NC(=O)[C@H](Cc2c[nH]c3ccccc23)NC(=O)[C@@H]2C[C@@H](O)CN2C1=O` [Example 1107], the IC50 is 0.01 to 0.099 µM. Take `CC(C)C[C@@H]1NC(=O)[C@H](Cc2c[nH]cn2)NC(=O)[C@@H]2CCCN2C(=O)[C@H](CC(N)=O)NC(=O)[C@@H]2COCCN2C(=O)[C@H](Cc2ccc(O)cc2)NC(=O)CSC[C@H](C(=O)NCC(N)=O)NC(=O)[C@@H](C)NC(=O)[C@@H]2CCC/C=C\CCC[C@@H](C(=O)N2C)N(C)C(=O)[C@H](Cc2c[nH]c3ccccc23)NC(=O)[C@H](CO)NC(=O)[C@@H](Cc2c[nH]c3ccccc23)NC(=O)[C@@H]2C[C@@H](O)CN2C1=O` [Example 1110]: the IC50 was 0.01 to 0.099 µM. Take `CC(C)C[C@@H]1NC(=O)[C@H](CN)NC(=O)[C@@H]2CCCN2C(=O)[C@H](CC(N)=O)NC(=O)[C@H](C)N(C)C(=O)[C@H](Cc2ccc(O)cc2)NC(=O)CSC[C@H](C(=O)NCC(N)=O)NC(=O)[C@@H](CCCN)NC(=O)[C@H]2CCC/C=C\CCC[C@@H](C(=O)N2C)N(C)C(=O)[C@H](Cc2c[nH]c3ccccc23)NC(=O)[C@H](CO)NC(=O)[C@@H](Cc2c[nH]c3ccccc23)NC(=O)[C@@H]2C[C@@H](O)CN2C1=O` [Example 1104]: the IC50 is 0.01 to 0.099 µM.

For `CC(C)C[C@@H]1NC(=O)[C@H](CN)NC(=O)[C@@H]2CCCN2C(=O)[C@H](CC(N)=O)NC(=O)[C@H](C)N(C)C(=O)[C@H](Cc2ccc(O)cc2)NC(=O)CSC[C@H](C(=O)NCC(N)=O)NC(=O)[C@@H](C)NC(=O)[C@H]2CCC/C=C\CCC[C@@H](C(=O)N2C)N(C)C(=O)[C@H](Cc2c[nH]c3ccccc23)NC(=O)[C@H](CO)NC(=O)[C@@H](Cc2c[nH]c3ccccc23)NC(=O)[C@@H]2C[C@@H](O)CN2C1=O` [Example 1106], the IC50 lay in the range of 0.1 to 2 µM. Still for that read-out and setting: in the case of `C[C@H]1C(=O)N[C@@H](CC(=O)O)C(=O)N2CCC[C@H]2C(=O)N[C@@H](CN)C(=O)N[C@@H](CCC(=O)O)C(=O)N2C[C@H](O)C[C@H]2C(=O)N[C@@H](Cc2c[nH]c3ccccc23)C(=O)N[C@@H](CO)C(=O)N[C@@H](Cc2cn(CC(=O)O)c3ccccc23)C(=O)N(C)[C@H]2CCCC/C=C\CCCC[C@@H](C(=O)N[C@@H](CCC(=O)O)C(=O)N[C@H](C(=O)NCC(N)=O)CSCC(=O)N[C@@H](Cc3ccc(O)cc3)C(=O)N1C)N(C)C2=O` [Example 1117] it was 0.002 to 0.0099 µM; in that of `CC(C)C[C@@H]1NC(=O)[C@H](Cc2cnc[nH]2)NC(=O)[C@@H]2CCCN2C(=O)[C@H](CC(N)=O)NC(=O)[C@H](C)N(C)C(=O)[C@H](Cc2ccc(O)cc2)NC(=O)CSC[C@@H](C(=O)NCC(N)=O)NC(=O)[C@H](CCCNC(=N)N)NC(=O)[C@@H]2CCC/C=C\CCC[C@@H](C(=O)N2C)N(C)C(=O)[C@H](Cc2c[nH]c3ccccc23)NC(=O)[C@H](CO)NC(=O)[C@H](Cc2c[nH]c3ccccc23)NC(=O)[C@@H]2C[C@@H](O)CN2C1=O` [Example 1101], 0.1 to 2 µM. For the molecule `CC(C)C[C@@H]1NC(=O)[C@H](Cc2cnc[nH]2)NC(=O)[C@@H]2CCCN2C(=O)[C@H](CC(N)=O)NC(=O)[C@H](C)N(C)C(=O)[C@H](Cc2ccc(O)cc2)NC(=O)CSC[C@@H](C(=O)NCC(N)=O)NC(=O)[C@H](CCCNC(=N)N)NC(=O)[C@@H]2CC/C=C\CC[C@@H](C(=O)N2C)N(C)C(=O)[C@H](Cc2c[nH]c3ccccc23)NC(=O)[C@H](CO)NC(=O)[C@H](Cc2c[nH]c3ccccc23)NC(=O)[C@@H]2C[C@@H](O)CN2C1=O` [Example 1102], the IC50 lay within 0.1 to 2 µM. Turning to `C[C@H]1C(=O)N[C@@H](CC(=O)O)C(=O)N2CCC[C@H]2C(=O)N[C@@H](CN)C(=O)N[C@@H](CCC(=O)O)C(=O)N2C[C@H](O)C[C@H]2C(=O)N[C@@H](Cc2c[nH]c3ccccc23)C(=O)N[C@@H](CO)C(=O)N[C@@H](Cc2c[nH]c3ccccc23)C(=O)N(C)[C@H]2CCCC/C=C\CCCC[C@@H](C(=O)N[C@@H](CCC(=O)O)C(=O)N[C@H](C(N)=O)CSCC(=O)N[C@@H](Cc3ccc(O)cc3)C(=O)N1C)N(C)C2=O` [Example 1108], the IC50 was 0.002 to 0.0099 µM. As to `CC(C)C[C@@H]1NC(=O)[C@H](Cc2cnc[nH]2)NC(=O)[C@@H]2CCCN2C(=O)[C@H](CC(N)=O)NC(=O)[C@H](C)N(C)C(=O)[C@H](Cc2ccccc2)NC(=O)CSC[C@@H](C(=O)NCC(N)=O)NC(=O)[C@H](CCCNC(=N)N)NC(=O)[C@@H]2CCCC/C=C/CCCC[C@@H](C(=O)N2C)N(C)C(=O)[C@H](Cc2c[nH]c3ccccc23)NC(=O)[C@H](CO)NC(=O)[C@H](Cc2c[nH]c3ccccc23)NC(=O)CN(C)C1=O` [Example 1001], the IC50 was 0.01 to 0.099 µM. For the molecule `C[C@H]1C(=O)N[C@@H](CC(=O)O)C(=O)N2CCC[C@H]2C(=O)N[C@@H](CN)C(=O)N[C@@H](CCC(=O)O)C(=O)N2C[C@H](O)C[C@H]2C(=O)N[C@@H](Cc2c[nH]c3ccccc23)C(=O)N[C@@H](CO)C(=O)N[C@@H](Cc2c[nH]c3ccccc23)C(=O)N(C)[C@H]2CCC/C=C\CCCC[C@@H](C(=O)N[C@@H](CCC(=O)O)C(=O)N[C@H](C(=O)NCC(N)=O)CSCC(=O)N[C@@H](Cc3ccc(O)cc3)C(=O)N1C)N(C)C2=O` [Example 1116], the IC50 was in the range of 0.01 to 0.099 µM.
